Reference: US20220168403A1, “SUBCUTANEOUS TELOMERASE INHIBITOR COMPOSITIONS AND METHODS FOR USING SAME” (Geron Corporation, priority 2020, published 2022)

Tests used:
[1] = Bioavailability of imetelstat sodium in rats via subcutaneous and intravenous routes (plasma LC/MS/MS, noncompartmental PK); assay type: in vivo, Sprague-Dawley rats
Experimental: 4 male, Sprague-Dawley rats (approximately 250 g-260 g) were dosed intravenously (IV volume 37.5 μL; 30 mg/kg) and 4 male, Sprague-Dawley rats (approximately 250 g-260 g) were dosed subcutaneously (SC volume 113 μL; 90 mg/kg) with imetelstat sodium. Imetelstat sodium is a 5′ palmitoylated 13-mer thiophosphoramidate oligonucleotide composed of the sequence 5′-TAGGGTTAGACAA-3′. Imetelstat sodium was dissolved in water immediately before dosing.
Blood was collected from each of the rats at time points of 0.083 hours (˜5 minutes), 0.25 hours (15 minutes), 1 hour, 2 hours, 4 hours, 8 hours and at 24 hours. A volume of […] of whole blood was collected, yielding about 700 μL to 1000 μL of plasma. Blood was collected through a secondary catheter in IV dosed rats (different from the one used for IV dosing).
Blood samples were collected in EDTA tubes and centrifuged immediately after collection. Collected plasma samples were transferred to a separate vial. Plasma concentration of imetelstat sodium was analyzed by LC/MS/MS.
The plasma concentrations of imetelstat sodium that were analyzed over a 24 hour period are depicted in FIG. 1. The plasma concentrations of imetelstat sodium were analyzed by a noncompartmental PK analysis. The subcutaneous (s.c.) bioavailability was calculated based on the following equation: F=(AUC(s.c.)/Dose(s.c.))/(AUC(i.v.)/Dose(i.v.))×100%.

[2] = Pre-study compatibility of imetelstat co-formulated with rHuPH20 (appearance, UV assay, water content, pH, RP-HPLC/UV); assay type: physicochemical
Experimental: The following formulations were prepared

[3] = test system: template region of the RNA component of telomerase; details: background statement; cited from earlier work
[4] = test system: cancer cell lines and human tumors; details: U.S. Pat. No. 7,494,982, cited from earlier work
[5] = test system: patients with lower risk myelodysplastic syndrome; details: administered intravenously; cited from earlier work
[6] = test system: patients with myelofibrosis; details: administered intravenously, correlated with reduction of mutation burden and cytogenetic abnormalities; cited from earlier work

SMILES: CCCCCCCCCCCCCCCC(=O)NCC(O)COP(=O)([S-])OC[C@H]1O[C@@H](n2cc(C)c(=O)[nH]c2=O)CC1NP(=O)([S-])OC[C@H]1O[C@@H](n2cnc3c(N)ncnc32)CC1NP(=O)([S-])OC[C@H]1O[C@@H](n2cnc3c(=O)[nH]c(N)nc32)CC1NP(=O)([S-])OC[C@H]1O[C@@H](n2cnc3c(=O)[nH]c(N)nc32)CC1NP(=O)([S-])OC[C@H]1O[C@@H](n2cnc3c(=O)[nH]c(N)nc32)CC1NP(=O)([S-])OC[C@H]1O[C@@H](n2cc(C)c(=O)[nH]c2=O)CC1NP(=O)([S-])OC[C@H]1O[C@@H](n2cc(C)c(=O)[nH]c2=O)CC1NP(=O)([S-])OC[C@H]1O[C@@H](n2cnc3c(N)ncnc32)CC1NP(=O)([S-])OC[C@H]1O[C@@H](n2cnc3c(=O)[nH]c(N)nc32)CC1NP(=O)([S-])OC[C@H]1O[C@@H](n2cnc3c(N)ncnc32)CC1NP(=O)([S-])OC[C@H]1O[C@@H](n2ccc(N)nc2=O)CC1NP(=O)([S-])OC[C@H]1O[C@@H](n2cnc3c(N)ncnc32)CC1NP(=O)([S-])OC[C@H]1O[C@@H](n2cnc3c(N)ncnc32)CC1N.[Na+].[Na+].[Na+].[Na+].[Na+].[Na+].[Na+].[Na+].[Na+].[Na+].[Na+].[Na+].[Na+] (stereo partly drawn) [imetelstat sodium, 5′ palmitoylated 13-mer thiophosphoramidate oligonucleotide composed of the sequence 5′-TAGGGTTAGACAA-3′]
- calculated subcutaneous bioavailability (F) ([1]; SC 90 mg/kg vs IV 30 mg/kg, F=(AUC(s.c.)/Dose(s.c.))/(AUC(i.v.)/Dose(i.v.))×100%, 24 hour period): about 95.8%
- calculated subcutaneous bioavailability (F) ([1]; repeated experiment): about 81.5%
- Individual Impurities by RP-HPLC/UV: Unlipidated species ([2]; RRT 0.42): 0.26% Area
- Individual Impurities by RP-HPLC/UV: Pre-Peak ([2]; RRT 0.98): 0.35% Area
- Individual Impurities by RP-HPLC/UV: Post-Peak 1 ([2]; RRT 1.04): 5.04% Area
- Individual Impurities by RP-HPLC/UV: Post-Peak 2 ([2]; RRT 1.08): 0.53% Area
- Individual Impurities by RP-HPLC/UV: Post-Peak 3 ([2]; RRT 1.12 (Imetelstat Only), 1.09 (co-formulations)): <0.2% Area
- Assay by UV ([2]; pre-study): 1033 µg/mg
- Water Content ([2]; pre-study): 4.2%
- pH (1 mL, Plastic) ([2]; pre-study): 8.0
- Purity by RP-HPLC/UV ([2]; pre-study compatibility): 93.1%
- Total Impurities by RP-HPLC/UV ([2]; pre-study compatibility): 6.9%
- Appearance of Reconstituted Solution ([2]; pre-study, Imetelstat Only = most current stability data of the drug substance lot): Clear solution,
- binding to the template region of the RNA component of telomerase [3]: high affinity
- telomerase activity inhibition ([4]; background): inhibits telomerase activity
- effect on cell proliferation ([4]; multitude of different cancer cell lines and human tumors): effective against cell proliferation
- transfusion independence [5]: able to achieve durable transfusion independence in certain patients
- overall survival and bone marrow fibrosis [6]: able to achieve improvement in overall survival and bone marrow fibrosis
